Values after ≈ are worked out from the molar mass of the structure shown.
Legend:
Pseudomonas aeruginosa [1] = assay: Antimicrobial activity against Pseudomonas aeruginosa CICC 21625 clinical isolates after 24 hrs by NCCLS-protocol based assay; type: functional; details: CICC 21625, 24 h
Escherichia coli [2] = assay: Bactericidal activity against Escherichia coli UB1005 incubated for 4 hrs followed by culture spread on agar plates and cultured overnight; type: functional; details: UB1005, 4 h, read-out: MBC>99.9
Escherichia coli [3] = assay: Antimicrobial activity against Escherichia coli ATCC 25922 after 24 hrs by NCCLS-protocol based assay; type: functional; details: ATCC 25922, 24 h
Escherichia coli [4] = assay: Bactericidal activity against Escherichia coli 078 incubated for 4 hrs followed by culture spread on agar plates and cultured overnight; type: functional; details: Escherichia coli, 078, 4 h; read-out: MBC>99.9
Salmonella typhimurium [5] = assay: Bactericidal activity against Salmonella typhimurium ATCC 14028 incubated for 4 hrs followed by culture spread on agar plates and cultured overnight; type: functional, Salmonella enterica subsp. enterica serovar Typhimurium; details: Salmonella enterica, ATCC 14028, 4 h; read-out: MBC>99.9
Pseudomonas aeruginosa [6] = assay: Antimicrobial activity against Pseudomonas aeruginosa PAO1 after 24 hrs by NCCLS-protocol based assay; type: functional; details: PAO1, 24 h
Pseudomonas aeruginosa [7] = assay: Bactericidal activity against Pseudomonas aeruginosa ATCC 27853 incubated for 4 hrs followed by culture spread on agar plates and cultured overnight; type: functional; details: ATCC 27853, 4 h, read-out: MBC>99.9
Pseudomonas aeruginosa [8] = assay: Antimicrobial activity against Pseudomonas aeruginosa 26305 clinical isolates after 24 hrs by NCCLS-protocol based assay; type: functional; details: Pseudomonas aeruginosa, 26305, 24 h
Klebsiella pneumoniae [9] = assay: Bactericidal activity against Klebsiella pneumoniae incubated for 4 hrs followed by culture spread on agar plates and cultured overnight; type: functional; details: read-out: MBC>99.9
Pseudomonas aeruginosa [10] = assay: Bactericidal activity against Pseudomonas aeruginosa 25349 clinical isolates incubated for 4 hrs followed by culture spread on agar plates and cultured overnight; type: functional; details: Pseudomonas aeruginosa, 25349, 4 h; read-out: MBC>99.9
Escherichia coli [11] = assay: Antimicrobial activity against Escherichia coli 078 after 24 hrs by NCCLS-protocol based assay; type: functional; details: Escherichia coli, 078, 24 h
Pseudomonas aeruginosa [12] = assay: Antimicrobial activity against Pseudomonas aeruginosa ATCC 27853 after 24 hrs by NCCLS-protocol based assay; type: functional; details: ATCC 27853, 24 h
Pseudomonas aeruginosa [13] = assay: Bactericidal activity against Pseudomonas aeruginosa CICC 21630 clinical isolates incubated for 4 hrs followed by culture spread on agar plates and cultured overnight; type: functional; details: CICC 21630, 4 h, read-out: MBC>99.9
Escherichia coli [14] = assay: Antimicrobial activity against Escherichia coli K88 after 24 hrs by NCCLS-protocol based assay; type: functional; details: K88, 24 h
Escherichia coli [15] = assay: Bactericidal activity against Escherichia coli ATCC 25922 incubated for 4 hrs followed by culture spread on agar plates and cultured overnight; type: functional; details: ATCC 25922, 4 h, read-out: MBC>99.9
Pseudomonas aeruginosa [16] = assay: Bactericidal activity against Pseudomonas aeruginosa 26305 clinical isolates incubated for 4 hrs followed by culture spread on agar plates and cultured overnight; type: functional; details: Pseudomonas aeruginosa, 26305, 4 h; read-out: MBC>99.9
Acinetobacter baumannii [17] = assay: Antimicrobial activity against Acinetobacter baumannii after 24 hrs by NCCLS-protocol based assay; type: functional
Salmonella typhimurium [18] = assay: Bactericidal activity against Salmonella typhimurium C7731 incubated for 4 hrs followed by culture spread on agar plates and cultured overnight; type: functional, Salmonella enterica subsp. enterica serovar Typhimurium; details: Salmonella enterica, C7731, 4 h; read-out: MBC>99.9
[19] = Antimicrobial activity against Salmonella pullorum C7913 after 24 hrs by NCCLS-protocol based assay; type: functional, Salmonella enterica subsp. enterica serovar Pullorum; details: Salmonella enterica, C7913, 24 h
Pseudomonas aeruginosa [20] = assay: Bactericidal activity against Pseudomonas aeruginosa PAO1 incubated for 4 hrs followed by culture spread on agar plates and cultured overnight; type: functional; details: PAO1, 4 h, read-out: MBC>99.9
[21] = Bactericidal activity against Salmonella pullorum C7913 incubated for 4 hrs followed by culture spread on agar plates and cultured overnight; type: functional, Salmonella enterica subsp. enterica serovar Pullorum; details: Salmonella enterica, C7913, 4 h; read-out: MBC>99.9
Escherichia coli [22] = assay: Antimicrobial activity against Escherichia coli UB1005 after 24 hrs by NCCLS-protocol based assay; type: functional; details: UB1005, 24 h
Escherichia coli [23] = assay: Antimicrobial activity against Escherichia coli K99 after 24 hrs by NCCLS-protocol based assay; type: functional; details: K99, 24 h
Salmonella typhimurium [24] = assay: Antimicrobial activity against Salmonella typhimurium C7731 after 24 hrs by NCCLS-protocol based assay; type: functional, Salmonella enterica subsp. enterica serovar Typhimurium; details: Salmonella enterica, C7731, 24 h
Escherichia coli [25] = assay: Bactericidal activity against Escherichia coli K99 incubated for 4 hrs followed by culture spread on agar plates and cultured overnight; type: functional; details: K99, 4 h, read-out: MBC>99.9
Salmonella typhimurium [26] = assay: Antimicrobial activity against Salmonella typhimurium ATCC 14028 after 24 hrs by NCCLS-protocol based assay; type: functional, Salmonella enterica subsp. enterica serovar Typhimurium; details: Salmonella enterica, ATCC 14028, 24 h
Escherichia coli [27] = assay: Bactericidal activity against Escherichia coli K88 incubated for 4 hrs followed by culture spread on agar plates and cultured overnight; type: functional; details: K88, 4 h, read-out: MBC>99.9
Pseudomonas aeruginosa [28] = assay: Bactericidal activity against Pseudomonas aeruginosa CICC 21625 clinical isolates incubated for 4 hrs followed by culture spread on agar plates and cultured overnight; type: functional; details: CICC 21625, 4 h, read-out: MBC>99.9
Pseudomonas aeruginosa [29] = assay: Antimicrobial activity against Pseudomonas aeruginosa CICC 21630 clinical isolates after 24 hrs by NCCLS-protocol based assay; type: functional; details: CICC 21630, 24 h
Klebsiella pneumoniae [30] = assay: Antimicrobial activity against Klebsiella pneumoniae after 24 hrs by NCCLS-protocol based assay; type: functional
Acinetobacter baumannii [31] = assay: Bactericidal activity against Acinetobacter baumannii incubated for 4 hrs followed by culture spread on agar plates and cultured overnight; type: functional; details: read-out: MBC>99.9
Pseudomonas aeruginosa [32] = assay: Antimicrobial activity against Pseudomonas aeruginosa 25349 clinical isolates after 24 hrs by NCCLS-protocol based assay; type: functional; details: Pseudomonas aeruginosa, 25349, 24 h

H-LRPLLRPLLRPLLRPLLRPL-NH2
MIC95 (Pseudomonas aeruginosa [1]): 32 µM
MBC (Escherichia coli [2]): 8 µM
MIC95 (Escherichia coli [3]): 4 µM
MBC (Escherichia coli [4]): 4 µM
MBC (Salmonella typhimurium [5]): 16 µM
MIC95 (Pseudomonas aeruginosa [6]): 32 µM
MBC (Pseudomonas aeruginosa [7]): 16 µM
MIC95 (Pseudomonas aeruginosa [8]): 32 µM
MBC (Klebsiella pneumoniae [9]): 8 µM
MBC (Pseudomonas aeruginosa [10]): 32 µM
MIC95 (Escherichia coli [11]): 4 µM
MIC95 (Pseudomonas aeruginosa [12]): 32 µM
MBC (Pseudomonas aeruginosa [13]): 16 µM
MIC95 (Escherichia coli [14]): 2 µM
MBC (Escherichia coli [15]): 4 µM
MBC (Pseudomonas aeruginosa [16]): 32 µM
MIC95 (Acinetobacter baumannii [17]): 2 µM
MBC (Salmonella typhimurium [18]): 8 µM
MIC95 [19]: 2 µM
MBC (Pseudomonas aeruginosa [20]): 32 µM
MBC [21]: 4 µM
MIC95 (Escherichia coli [22]): 4 µM
MIC95 (Escherichia coli [23]): 4 µM
MIC95 (Salmonella typhimurium [24]): 4 µM
MBC (Escherichia coli [25]): 8 µM
MIC95 (Salmonella typhimurium [26]): 4 µM
MBC (Escherichia coli [27]): 4 µM
MBC (Pseudomonas aeruginosa [28]): 32 µM
MIC95 (Pseudomonas aeruginosa [29]): 16 µM
MIC95 (Klebsiella pneumoniae [30]): 8 µM
MBC (Acinetobacter baumannii [31]): 4 µM
MIC95 (Pseudomonas aeruginosa [32]): 32 µM

NCC[C@H](O)C(=O)N[C@@H]1C[C@H](N)[C@@H](O[C@H]2O[C@H](CN)[C@@H](O)[C@H](O)[C@H]2O)[C@H](O)[C@H]1O[C@H]1O[C@H](CO)[C@@H](O)[C@H](N)[C@H]1O [AMIKACIN]
MIC95 (Pseudomonas aeruginosa [1]): 0.125 µM (≈ 0.0732 µg/mL)
MBC (Escherichia coli [2]): 0.125 µM (≈ 0.0732 µg/mL)
MIC95 (Escherichia coli [3]): 0.0625 µM (≈ 0.0366 µg/mL)
MBC (Escherichia coli [4]): 0.0625 µM (≈ 0.0366 µg/mL)
MBC (Salmonella typhimurium [5]): 0.125 µM (≈ 0.0732 µg/mL)
MIC95 (Pseudomonas aeruginosa [6]): 0.0625 µM (≈ 0.0366 µg/mL)
MBC (Pseudomonas aeruginosa [7]): 0.25 µM (≈ 0.146 µg/mL)
MIC95 (Pseudomonas aeruginosa [8]): > 64 µM
MBC (Klebsiella pneumoniae [9]): 0.125 µM (≈ 0.0732 µg/mL)
MBC (Pseudomonas aeruginosa [10]): 0.25 µM (≈ 0.146 µg/mL)
MIC95 (Escherichia coli [11]): 0.0625 µM (≈ 0.0366 µg/mL)
MIC95 (Pseudomonas aeruginosa [12]): 0.125 µM (≈ 0.0732 µg/mL)
MBC (Pseudomonas aeruginosa [13]): 0.125 µM (≈ 0.0732 µg/mL)
MIC95 (Escherichia coli [14]): 0.0625 µM (≈ 0.0366 µg/mL)
MBC (Escherichia coli [15]): 0.125 µM (≈ 0.0732 µg/mL)
MBC (Pseudomonas aeruginosa [16]): > 64 µM
MIC95 (Acinetobacter baumannii [17]): 0.0625 µM (≈ 0.0366 µg/mL)
MBC (Salmonella typhimurium [18]): 0.125 µM (≈ 0.0732 µg/mL)
MIC95 [19]: 0.0625 µM (≈ 0.0366 µg/mL)
MBC (Pseudomonas aeruginosa [20]): 0.125 µM (≈ 0.0732 µg/mL)
MBC [21]: 0.0625 µM (≈ 0.0366 µg/mL)
MIC95 (Escherichia coli [22]): 0.0625 µM (≈ 0.0366 µg/mL)
MIC95 (Escherichia coli [23]): 0.0625 µM (≈ 0.0366 µg/mL)
MIC95 (Salmonella typhimurium [24]): 0.0625 µM (≈ 0.0366 µg/mL)
MBC (Escherichia coli [25]): 0.125 µM (≈ 0.0732 µg/mL)
MIC95 (Salmonella typhimurium [26]): 0.125 µM (≈ 0.0732 µg/mL)
MBC (Escherichia coli [27]): 0.0625 µM (≈ 0.0366 µg/mL)
MBC (Pseudomonas aeruginosa [28]): 0.25 µM (≈ 0.146 µg/mL)
MIC95 (Pseudomonas aeruginosa [29]): 0.125 µM (≈ 0.0732 µg/mL)
MIC95 (Klebsiella pneumoniae [30]): 0.0625 µM (≈ 0.0366 µg/mL)
MBC (Acinetobacter baumannii [31]): 0.125 µM (≈ 0.0732 µg/mL)
MIC95 (Pseudomonas aeruginosa [32]): 0.25 µM (≈ 0.146 µg/mL)

Source: ChEMBL document CHEMBL4316596, “Antimicrobial Peptides with High Proteolytic Resistance for Combating Gram-Negative Bacteria” (J Med Chem, 2019)
